# Test results taken from US7786141B2 (Vertex Pharmaceuticals Incorporated, priority 2004, dated 2010).
# Columns and labels:
# [1] = target: T1, M1 muscarinic receptor (Homo sapiens, UniProt P11229); assay: Functional mobilization of intracellular calcium (FLIPR) in M1-CHO cells; assay type: cell-based; conditions: Table 4; for Emax: 100% efficacy is the maximum response obtained with the Carbachol control; for M1 Activity: modulating M1 receptor
# T1 construct: expressed in transfected cells; host or cells: CHO (M1-CHO)
# T1 sequence (P11229 1-460): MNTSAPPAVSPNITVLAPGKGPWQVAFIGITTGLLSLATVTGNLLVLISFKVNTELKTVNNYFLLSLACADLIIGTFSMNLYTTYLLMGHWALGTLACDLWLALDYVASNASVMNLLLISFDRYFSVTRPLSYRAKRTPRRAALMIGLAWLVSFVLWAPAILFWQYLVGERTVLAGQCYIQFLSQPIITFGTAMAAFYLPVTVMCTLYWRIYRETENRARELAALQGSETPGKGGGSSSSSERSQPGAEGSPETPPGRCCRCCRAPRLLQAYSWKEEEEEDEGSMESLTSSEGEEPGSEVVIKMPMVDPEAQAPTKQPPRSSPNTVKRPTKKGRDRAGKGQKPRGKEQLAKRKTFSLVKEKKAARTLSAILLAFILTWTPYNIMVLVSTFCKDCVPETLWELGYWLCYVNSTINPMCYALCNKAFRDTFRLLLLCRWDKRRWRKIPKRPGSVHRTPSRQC
# Summary of the method: (§1)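 Two modes: direct compound addition for agonism, or 15 min compound pre-incubation (or co-application) before carbachol at EC80 for inhibition. Calcium signal from Fluo-3 AM or Calcium 3 dye in CHO cells, 1 mM probenecid, pH 7.4, read 60 sec at 488/540 nm; DMSO 0.5% final.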
# [2] = target: T2, M4 muscarinic receptor (Homo sapiens, UniProt P08173); assay: Functional mobilization of intracellular calcium (FLIPR) in M4-CHO cells; assay type: cell-based; conditions: Table 4; for Emax: 100% efficacy is the maximum response obtained with the Carbachol control; for M4 Activity: modulating M4 receptor
# T2 construct: expressed in transfected cells; host or cells: CHO (M4-CHO)
# T2 sequence (P08173 1-479): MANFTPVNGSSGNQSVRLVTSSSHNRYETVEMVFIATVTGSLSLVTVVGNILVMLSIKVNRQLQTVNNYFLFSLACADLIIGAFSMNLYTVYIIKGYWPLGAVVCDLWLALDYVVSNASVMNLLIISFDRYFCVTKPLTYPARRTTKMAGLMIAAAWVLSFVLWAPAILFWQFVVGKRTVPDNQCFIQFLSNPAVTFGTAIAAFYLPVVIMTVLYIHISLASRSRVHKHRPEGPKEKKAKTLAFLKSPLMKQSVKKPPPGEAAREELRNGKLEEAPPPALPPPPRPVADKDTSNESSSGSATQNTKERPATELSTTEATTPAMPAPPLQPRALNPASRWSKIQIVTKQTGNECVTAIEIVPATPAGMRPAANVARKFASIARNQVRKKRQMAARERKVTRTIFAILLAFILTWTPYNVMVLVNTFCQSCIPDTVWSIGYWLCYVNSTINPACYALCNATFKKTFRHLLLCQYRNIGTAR
# Summary of the method: as §1
Compound,Emax [1] [%],M1 Activity [1],Emax [2] [%],M4 Activity [2]
CC(=O)N1CC2(CCN(CC3CCN(C(=O)OC4CCC4)CC3)CC2)c2cc(F)ccc21 [compound 532],< 25,x (activity was measured to be greater than 5.0 μM),< 25,x (activity was measured to be greater than 5.0 μM)
CC(=O)N[C@H]1CC2(CCN(CC(=O)N3CC=CC3)CC2)c2ccccc21 [compound 533],< 25,x (activity was measured to be greater than 5.0 μM),< 25,x (activity was measured to be greater than 5.0 μM)
CN(C)C(=O)N1CC2(CCN(C3CCN(c4ccc(F)cc4)CC3)CC2)c2cc(F)ccc21 [compound 534],25 to 100,xx (activity was measured to be between 2.0 μM and 5.0 μM),< 25,xxx (activity was measured to be less than 2.0 μM)
CN(C)C(=O)N1CC2(CCN(C3CCN(c4cccnc4)CC3)CC2)c2cc(F)ccc21 [compound 535],25 to 100,xxx (activity was measured to be less than 2.0 μM),25 to 100,xxx (activity was measured to be less than 2.0 μM)
OC1CC2(CCN([C@@H]3C[C@H]4CC[C@@H]3C4)CC2)c2ccccc21 (stereo partly shown) [compound 536],25 to 100,xxx (activity was measured to be less than 2.0 μM),25 to 100,xxx (activity was measured to be less than 2.0 μM)
CCOC(=O)N1CCC(N2CCC3(CC[C@H](NC(C)=O)c4ccccc43)CC2)CC1 [compound 537],25 to 100,xxx (activity was measured to be less than 2.0 μM),25 to 100,xxx (activity was measured to be less than 2.0 μM)
CCOC(=O)N1CCC(N2CCC3(C[C@H](NC(C)=O)c4cc(F)ccc43)C2)CC1 (stereo partly shown) [compound 538],25 to 100,xx (activity was measured to be between 2.0 μM and 5.0 μM),< 25,x (activity was measured to be greater than 5.0 μM)
COCCOC(=O)N1CCC(N2CCC3(CC2)CN(C(C)=O)c2ccccc23)CC1 [compound 539],25 to 100,xx (activity was measured to be between 2.0 μM and 5.0 μM),25 to 100,xx (activity was measured to be between 2.0 μM and 5.0 μM)
COC(=O)N1CC[C@@H](CN2CCC3(CC2)CN(C(=O)N(C)C)c2ccc(F)cc23)C1 [compound 540],25 to 100,xxx (activity was measured to be less than 2.0 μM),25 to 100,xxx (activity was measured to be less than 2.0 μM)
CC(=O)NC1CCC2(CCN(CCC3CCCN(S(C)(=O)=O)C3)CC2)c2ccccc21 (stereo not shown) [compound 541],25 to 100,xxx (activity was measured to be less than 2.0 μM),< 25,x (activity was measured to be greater than 5.0 μM)
O=C(O)C1CC2(CCN(C3CCCC3)CC2)c2ccccc21 (stereo not shown) [compound 542],< 25,x (activity was measured to be greater than 5.0 μM),< 25,x (activity was measured to be greater than 5.0 μM)
CCOC(=O)N1CCC(N2CCC3(CC2)CN(C(=O)C2(O)CC2)c2ccc(F)cc23)CC1 [compound 543],> 100,xxx (activity was measured to be less than 2.0 μM),25 to 100,xxx (activity was measured to be less than 2.0 μM)
CN(C)C(=O)N1CC2(CCN(C3CCN(C(=O)CC4CCCC4=O)CC3)CC2)c2cc(F)ccc21 (stereo not shown) [compound 544],25 to 100,xx (activity was measured to be between 2.0 μM and 5.0 μM),< 25,xx (activity was measured to be between 2.0 μM and 5.0 μM)
CC(=O)N1CC2(CCN(C3CCN(c4nc5ccccc5s4)CC3)CC2)c2ccccc21 [compound 545],< 25,x (activity was measured to be greater than 5.0 μM),< 25,x (activity was measured to be greater than 5.0 μM)
COc1cc2c(cc1OC)C1(CCN(C3C4CC5CC(C4)CC3C5)CC1)C[C@@H]2NC(C)=O (stereo partly shown) [compound 546],25 to 100,x (activity was measured to be greater than 5.0 μM),25 to 100,x (activity was measured to be greater than 5.0 μM)
CC(=O)N1CC2(CCN(C3CCNCC3)CC2)c2cc(F)ccc21 [compound 547],25 to 100,xx (activity was measured to be between 2.0 μM and 5.0 μM),25 to 100,x (activity was measured to be greater than 5.0 μM)
O=C(O)C1CC2(CCN(CC3CCCC3)CC2)c2ccccc21 (stereo not shown) [compound 548],< 25,x (activity was measured to be greater than 5.0 μM),< 25,x (activity was measured to be greater than 5.0 μM)
C#CCCOC(=O)N1CC[C@H](CN2CCC3(CC2)CN(C(C)=O)c2ccccc23)C1 [compound 549],< 25,x (activity was measured to be greater than 5.0 μM),< 25,x (activity was measured to be greater than 5.0 μM)
CC(=O)N1CC2(CCN(CC3CCN(C(=O)O[C@@H]4CCOC4)CC3)CC2)c2cc(C)ccc21 [compound 550],< 25,x (activity was measured to be greater than 5.0 μM),< 25,x (activity was measured to be greater than 5.0 μM)
CCOC(=O)N1CCC(N2CCC3(CC2)CN(C(C)=O)c2c(C(F)(F)F)cccc23)CC1 [compound 551],< 25,x (activity was measured to be greater than 5.0 μM),25 to 100,x (activity was measured to be greater than 5.0 μM)
COc1ccccc1N1CCC(N2CCC3(CC2)CN(C(=O)N(C)C)c2ccc(F)cc23)CC1 [compound 552],25 to 100,x (activity was measured to be greater than 5.0 μM),25 to 100,x (activity was measured to be greater than 5.0 μM)
C#CCCC(=O)N1CCC(N2CCC3(CC2)CN(C(=O)N(C)C)c2ccc(F)cc23)CC1 [compound 553],25 to 100,xxx (activity was measured to be less than 2.0 μM),< 25,xxx (activity was measured to be less than 2.0 μM)
CCOC(=O)N1CCC(CN2CCC3(CC2)CN(C(C)=O)c2ccc(C(C)C)cc23)CC1 [compound 555],25 to 100,xxx (activity was measured to be less than 2.0 μM),25 to 100,xx (activity was measured to be between 2.0 μM and 5.0 μM)
CC(=O)N1CC2(CCN(C3CCN(c4cncc(-c5ccc(F)cc5)n4)CC3)CC2)c2ccccc21 [compound 556],25 to 100,x (activity was measured to be greater than 5.0 μM),< 25,x (activity was measured to be greater than 5.0 μM)
CC(C)OC(=O)N1CC[C@@H](CN2CCC3(CC2)CN(C(=O)N(C)C)c2ccc(F)cc23)C1 [compound 558],25 to 100,xxx (activity was measured to be less than 2.0 μM),25 to 100,xxx (activity was measured to be less than 2.0 μM)
CCOC(=O)N1CCC(N2CCC3(CC2)CN(C(C)=O)c2c(-c4ccoc4)cccc23)CC1 [compound 559],25 to 100,xxx (activity was measured to be less than 2.0 μM),25 to 100,x (activity was measured to be greater than 5.0 μM)
CCOC(=O)N1CCC(N2CCC3(CC2)CN(C(C)=O)c2cccc(OC)c23)CC1 [compound 560],25 to 100,xxx (activity was measured to be less than 2.0 μM),< 25,x (activity was measured to be greater than 5.0 μM)
CN(C)C(=O)N1CC2(CCN(C3CCN(c4ccsc4)CC3)CC2)c2cc(F)ccc21 [compound 561],25 to 100,x (activity was measured to be greater than 5.0 μM),25 to 100,xx (activity was measured to be between 2.0 μM and 5.0 μM)
